Measurements published in patent US6008190A, “Cobalt Schiff base compounds” (California Institute of Technology, priority 1995, dated 1999).
Where two headings read alike, the source gives them in different places. Where a SMILES comes first, the peptide text is derived from it. [ ]: non-standard residue; d: D form.

What was measured:
Human a-thrombin = target: T1, Human a-thrombin (Homo sapiens, UniProt P00734); experiment: Thrombin inhibition assay, Spectrozyme TH hydrolysis at 406 nm; type: biochemical; details: for thrombin activity after incubation / activity relative to control: 0.1 μM thrombin; for thrombin activity after incubation: 2.5 mM, 24 hours at room temperature, assayed at 25° C.; for activity relative to control: 2.5 mM or similar concentration, 24 hours room temperature, Co(II) compound incubated under inert atmosphere then exposed to air
T1 construct: Human a-thrombin and the assay agent Spectrozyme; purchased American Diagnostica (Greenwich, Conn.); host or cells: purified blood product
Method: FIG. 1 depicts the inhibition of thrombin. 3.07×10^-9 M thrombin at 25C was assayed using Spectrozyme TH (American Diagnostics), and the reaction followed at 406 nm using a Hewlett Packard HP8452A diode array spectrophotometer with temperature control. All assays were performed in 10 mM Tris, 10 mM HEPES, 0.1% polyethylene glycol, 0.5 M NaCl, pH 7.8. The Co(III) carboxypropyl(NH3)2 (labeled as Co(carboxypropyl)) was coupled to the active site directed peptide NH2 -GGGdFPR-CO-NIH SEQ ID NO: 1 (labeled as peptide dFPR). The observed inhibition greatly exceeded Co(carboxypropyl)(NH3) )2, the peptide, and Co(III)acacen(NH3)2 Cl (labeled as Co(acacen)).
N-(2-hydroxyethyl)piperazine-N'-2-ethanesulfonic acid (HEPES) was from J. T. Baker Phillipsburg, N.J.). Cobaltous acetate tetrahydrate was obtained from FM Science (Gibbstown, N.J.). Human a-thrombin and the assay agent Spectrozyme (H-D-hexahydrotyrosyl-L-alanyl-L-arginine-p-nitroaniline diacetate) were purchased from American Diagnostica (Greenwich, Conn.). Antithrombotic peptides were manufactured as amides by the Beckman Institute Biopolymer Synthesis group at Caltech using solid phase methods. […] was from Pharmacia (Uppsala, Sweden). Enzyme reactions were followed spectrophotometrically using a photodiode array spectrophotometer. Ultrafiltration materials were from Amicon (Beverly Mass.). HPLC used Vydac reverse phase columns. ^1 H NMR were obtained on a 300 MHz FT-NMR spectrometer. Solvents used include EM Omnisolve MeOH, Omnisolve […] passed over basic alumina to remove residual acid, Fluka (Bubcs. Switzerland) puriss. MeOH and dioxane, and Quantum Chemical (Tuscola, Ill.) absolute EtOH. Distilled water was prepared by a Barnistead Nanopure system. All other solvents were reagent trade.
Thrombin inhibition assay: As with any purified blood product, proper care was taken to avoid the transmission of blood-borne pathogens. Thrombin was taken as received (about 1 ml, at 30 μM in 0.75 M sodium chloride storage solution) and divided into 100 μL aliquots. Each aliquot was diluted to 10 ml. using clean. filtered (2 μm) aqueous 0.75 M NaCl and divided into 1 mL samples. Each sample was stored frozen at -80° C. until ready for use. The protein should not be stored at -20 ° C. as this is too close to the cutectic point for the thrombin-salt mixture and freeze-thaw cycling may damage the protein.
An assay buffer containing 10 mM Tris, 10 mM HEPES, 0.1% polyethylene glycol (PEG 8000) and 500 mM sodium chloride was prepared to pH 8. Following manufacturer's instructions, 5 ,μmole Spectrozyme TH was dissolved in 1.000 mL filtered nanopure water. A series of [Co^III (acacen)(NH3)2 ]Cl solutions was prepared by dissolving 16.6 mg of the compound in 0.75M NaCl and then diluting aliquots to a range of cobalt concentrations from 4.7 mM to 4.7 nM. Both of the purified materials were assayed.
Thrombin was preincubated with inhibitor in the kinetics buffer (total volume of thrombin, buffer, and inhibitor of […]) for the times specified in FIG. 1. After incubation, the substrate, spectrozyme TH was added (8 mL of 5 mM spectrozyme), and the thrombin-catalyzed hydrolysis rates were monitored at 406 nm. The final concentration of thrombin in the experiments was 3 nM, and the concentration of substrate was […]. The inhibitor concentrations are outlined in FIG. 1. The rates of hydrolysis were determined from the linear portion of the saturation-kinetics plots. The percent activity is determined by dividing the rate of spectrozyme hydrolysis with inhibitor by the rate of hydrolysis without inhibitor and multiplying by 100.
A vial of thrombin prepared as above was thawed in warm water. 100 μL aliquots were added to 100 μL, samples of the cobalt acacen solutions. One 100 μL aliquot of thrombin solution was diluted with 100 μL 0.75M NaCl to be used as a control. Samples were incubated as needed before assay. […]

[1] = target: T2, Bovine carbonic anhydrase (Bos taurus, UniProt P00921); experiment: Inhibition of carbonic anhydrase, p-nitrophenylacetate substrate; type: biochemical; details: for % inhibition of CA: inert atmosphere, Tris pH 8
T2 construct: purchased Calbiochem
T2 sequence (P00921 whole entry): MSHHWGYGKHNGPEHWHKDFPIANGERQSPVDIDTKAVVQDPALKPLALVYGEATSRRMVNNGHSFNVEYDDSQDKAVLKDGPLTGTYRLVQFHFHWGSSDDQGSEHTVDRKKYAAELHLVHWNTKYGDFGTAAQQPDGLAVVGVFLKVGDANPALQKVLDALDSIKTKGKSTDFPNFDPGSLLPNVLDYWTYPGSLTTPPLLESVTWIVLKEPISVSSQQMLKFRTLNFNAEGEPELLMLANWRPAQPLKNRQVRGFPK
Method: Bovine carbonic anhydrase (20 mg 6.7×10^-7 mol, Calbiochem) was dissolved in 0.5 mL Tris buffer (pH=8, 0.05 M). To this solution was added 30 mg of Co(II)hydroxypropyl acacen (30 mg, 7.6×10^-5 mol) dissolved in 0.5 mL of H2 O. This solution was incubated for 48 hours. The excess cobalt complex was separated from the protein using a PD-10 gel filtration column equilibrated with Tris buffer (pH 8, 0.05 M). This enzyme, which was incubated with the Co(III) complex, retained 100% of its activity.
Two samples of bovine carbonic anhydrase (30 mg, 1×10^-6 mol) were dissolved in 3 mL of degassed Tris buffer (pH 8, 0.05 M). To one of the samples was added Co(II)hydroxypropyl acacen (30 mg, 9×10^-5mol). The other sample of bovine carbonic anhydrase served as the control. The solutions were incubated under inert atmosphere (glove box) and a 1 mL aliquot was removed from each sample after 48 and 96 hours of incubation. The protein was then exposed to air and the excess Co(II)hydroxypropyl acacen separated from the protein using a PD-10 gel filtration column (Pharmacia) equilibrated with Tris buffer (pH 8, 0.05 M). The enzymatic activity of the protein was assayed using p-nitroplhenylacetate as the substrate (Pocker et al., Biochem. 6:668-678 (1967)).

Thermolysin [2] = target: T3, Thermolysin (Bacillus thermoproteolyticus, UniProt P00800)
T3 sequence (P00800 233-548): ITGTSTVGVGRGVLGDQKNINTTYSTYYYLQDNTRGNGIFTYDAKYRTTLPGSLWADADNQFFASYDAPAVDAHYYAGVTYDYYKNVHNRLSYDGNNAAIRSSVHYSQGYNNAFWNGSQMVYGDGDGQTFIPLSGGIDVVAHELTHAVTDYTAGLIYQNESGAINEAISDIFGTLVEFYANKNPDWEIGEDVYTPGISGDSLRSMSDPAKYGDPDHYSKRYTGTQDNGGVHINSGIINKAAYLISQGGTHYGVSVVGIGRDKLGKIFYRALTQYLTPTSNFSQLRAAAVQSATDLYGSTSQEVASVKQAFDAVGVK
Source text: The resulting solution was transferred into the Tris running buffer using a PD-10 column (Pharmacia), and was characterized.

[3] = Axial ligand exchange of ammonia for imidazole; type: physicochemical; details: in water with excess imidazole, 25° C.
Source text: In a preferred embodiment, the cobalt compounds find use in the inhibition of proteins and enzymes of tumor cells. As outlined above, Co(III) "acacen" compounds can exchange an axial ligand for a different one by a dissociative mechanism with the slow loss of one axial ligand to form a five coordinate intermediate, followed by binding to another suitable ligand. For most cobalt complexes, ligand exchange is a slow process because there is a large loss of ligand field stabilization energy when a ligand is removed from an octahedral d^6 complex (see Huheey et al., Inorganic Chemistry: Principles of Structure and Reactivity, 4th Ed. HarperCollins. N.Y., chapter 13). Generally, the exchange is slow; for example, [Co(III)(acacen)(NH3)2 ]Cl in water with excess imidazole exchanges ammonia for imidazole with a half-life under an hour at 25° C., with the rate of exchange increasing with temperature. However, reduction to cobalt(II) puts an electron into the antibonding dz2 orbital, labilizing the axial ligands. Typical one-electronic reduction potentials with irreversible loss of an axial ligand are around -360 mV vs NHE, (Darbieu et al., Transition Met. Chem., 7:149 (1982)). This property may be exploited as a "redox switch" to control the activity of the cobalt compound. […]

thrombin = thrombin (Homo sapiens, UniProt P00734); details: initial estimate for two separate samples
Method: The [Co(III)acacen(NH3)2 ]CI experiments were repeated for a range of cobalt concentrations from 2.4 mM to 2.4 nM after at 12 hour incubation at 25C.

Thermolysin [4] = target: T3, Thermolysin; details: incubated with 5 mM inhibitor, HEPES pH 7.0, thermolysin 5×10^-8 M, cobalt inhibitor 1.25×10^-5 M
Method: Thermolysin (2,500,000 units, Calbiochem) was dissolved in 20 mL of Tris buffer (pH 7.2, 0.1 M, 2.5 M NaBr. 0.01 M CaCI2) and stored at 4° C.; enzyme concentration was determined by using E1%^280 =7.65 and a molecular weight of 34,600. This solution was further purified using gel filtration chromatography on an FPLC Using a Superdex 75 column (Pharmacia) equilibrated with 0.1 M Tris, 0.1 M NaBr, 0.01 CaCI, pH 7.2. This stock solution was stored at 4C. N-[3-(2-furyl)acryloyl]glycyl L-leuciniamide (FAGLA) was obtained from Sigma as the thermolysin substrate. A stock solution of FAGLA (4.0 mM) was prepared by dissolving the substrate in dimethylforthamide (DMF) and diluting it with buffer to a final concentration of 0.1 M Tris, 0.1 NaBr and 10 mM CaCl2, pH 7.0 (final concentration of DMF was 2.5%; sec Feder et al., Biochem. 9:2784-2791 (1970)). For all assays, the concentration of enzyme and substrate was 50 nM and 2.0 mM respectively. The peptidase activity of thermolysin was determined by following the decrease in absorption at 346 due to the enzymatic hydrolysis of FAGLA. Initial velocities were determined for ≤10% of the reaction.
Thermolysin (2×10^-5 mol) was incubated with [Co(III)acacen(NH3)2 ]Cl (5 mM) in HEPES buffer (pH 7.0, 0.01 M, 0.005 M CaCl2).
Stock solution of thermolysin was mixed with the cobalt compound dissolved in 0.1 M Tris, 0.1 M NaBr, 0.01 CaCl2, pH 7.2 (run buffer) to yield a final enzyme concentration of […] and a cobalt concentration of 2.5 mM. These solutions were incubated at 25C or 37C for several hours along with a control lacking cobalt compound. Periodically […] aliquots of these solutions were assayed for residual enzyme activity by their addition to a cuvette contain […] of FAGLA stock Solution, and following the absorption decrease at 346 nm as described above. All enzyme assays were performed at 25C.

With `CC(=O)C=C(C)NCCNC(C)=CC(C)=O` [cobalt-free ligand, acetylacetone etlhylenediamine] the “thrombin activity after incubation” value (Human a-thrombin) was “no effect”.

For Co(II)hydroxypropyl acacen, the “activity relative to control” value (Human a-thrombin) was 42%, the “% inhibition of CA” value ([1]; 48 hours incubation) was 33.8% and the “% inhibition of CA” value ([1]; 96 hours incubation) was 43.2%.

With `CC([O-])=CC(C)=NCCN=C(C)C=C(C)[O-].N.N.[Cl-].[Co+3]` [[Co(III)acacen(NH3)2]Cl] the “loss of enzyme activity due to irreversible inactivation by the cobalt complex” value (Thermolysin [2]; 5 mM cobalt complex, 10 μM thermolysin, overnight at 25C in presence of 50 μM phosphoramidon, after removal of the inhibitor) was “no detectable loss of enzyme activity”, the “cobalt complexes bound to the enzyme” value (Thermolysin [2]; active enzyme, active site protected by phosphoramidon) was “two” and the “equivalents of the cobalt compound bound for each enzyme molecule” value (Thermolysin [2]; thermolysin completely inactivated by the cobalt complex) was “three”. For the same compound, the “half-life of exchange of ammonia for imidazole” value [3] was “under an hour”, the “activity relative to control” value (Human a-thrombin) was 0% and the “thrombin activity after incubation” value (Human a-thrombin) was “completely inactive”. The “lowest cobalt concentration found to inhibit the protein” value (Human a-thrombin; range 2.4 mM to 2.4 nM, 12 hour incubation at 25C) was 24 µM, the “inhibition at lower incubation temperature” value (Human a-thrombin; range of cobalt concentrations, 3 hours at 5C, activity determined at 25C) was “Partial inhibition” and the cobalts per enzyme (thrombin) was 5-8. For the same compound, the “% inhibition” value (Thermolysin [4]; 45 minutes incubation) was 46.2%, the “% inhibition” value (Thermolysin [4]; 190 minutes incubation) was 63.9% and the “% inhibition” value (Thermolysin [4]; 322 minutes incubation) was 77.7%.

With `N=C(N)NCCC[C@H](NC(=O)[C@@H]1CCCN1C(=O)[C@@H](Cc1ccccc1)NC(=O)CNC(=O)CNC(=O)CN)C(N)=O` [(Gly)3 dPhePioArg, reference compound] (H-GGG[dF]PR-NH2) the Ki (Human a-thrombin) was roughly 209 µM.

In the case of “[Co(III)hydroxypropylacacen(NH3)2 ]CH3 COO [Co(III) complex]”, the “enzyme activity retained after incubation” value ([1]; incubated 48 hours, Tris buffer pH 8, excess complex removed by gel filtration) is reported as 100%.
